≈ marks a conversion by molar mass, not a printed value.
Tests used:
[1] = Liver microsomal stability (HLM); format: in vitro ADME; conditions: human, liver microsomes, human liver microsomes 0.5 mg/mL, 1 μM compound, NADPH
Experimental: Liver Microsomal Stability
Certain Compounds of the Disclosure were assessed for ADME metabolic stability in human liver microsomes (HLM).
Samples were prepared by adding 222.5 μL of a master solution (100 mM phosphate buffer and 0.5 mg/mL liver microsomes (HLM)) and 25 μL of a 10 mM NADPH solution to incubation plates, which were then warmed for 10 min. Each compound was separately dissolved in DMSO to prepare 10 mM stock solutions, which were then diluted to 100 μM with acetonitrile. A reaction was started by adding 2.5 μL of the […] solution of each compound to separate incubation plates such that the final concentration of for each compound in each plate was 1 μM. Aliquots of 30 μL were taken from the reaction solution at 0.5, 5, 15, 30 and 60 minutes. The reaction was stopped by the addition of 5 volumes of cold acetonitrile with IS (100 nM alprazolam, 200 nM caffeine and 100 nM tolbutamide). Aliquot of 100 μL of the supernatant was diluted by 100 μL ultra-pure water, and the mixture was used for LC/MS/MS analysis. Peak areas were determined from extracted ion chromatograms. […]. The percentage of remaining parent was calculated from peak area of test compound or PC. The slope value, k, is determined by linear regression of the natural logarithm of percent parent remaining vs. incubation time curve. All calculations are carried out using Microsoft Excel.
The in vitro half-life (in vitro t1/2) is determined from the slope value:
Conversion of the in vitro t1/2 (in min) into the in vitro intrinsic clearance (in vitro CLint, (HLM Clint (μL/min/mg proteins))) is done using the following equation: […]
A: HLM Clint <10 μL/min/mg; B: 10 μL/min/mg≤HLM Clint <50 μL/min/mg; C: HLM Clint ≥50 μL/min/mg.

[2] = Solubility in FaSSIF (Fasted State Simulated Intestinal Fluid); format: physicochemical; conditions: kinetic from dmso stock, FaSSIF pH 6.5, 25° C.
Experimental: Solubility in FaSSIF (Fasted State Simulated Intestinal Fluid)
Certain Compounds of the Disclosure were assessed for the apparent solubility in FaSSIF.
0.420 g of NaOH, 3.438 g of NaH2PO4 and 6.186 g of NaCl were dissolved into about 900 mL ultrapure water. The solution was adjusted to the pH of 6.5 with 1N NaOH or 1N HCl. The solution was then diluted with ultrapure water to 1000 mL at room temperature. The resulting solution is used as buffer solution.
2.240 g of FaSSIF Powder was added to about 500 mL of above-mentioned buffer solution. The solution was stirred until powder was completely dissolved. Then the solution was diluted with buffer A to 1000 mL at room temperature. This solution is FaSSIF to be used in the following experiment.
15 μL of stock solution (10 mM) of each sample was placed into their proper 96-well rack. 485 μL of FaSSIF was added into each vial of the cap-less solubility sample plate. One stir stick was added to each vial and the vial was sealed using a molded PTFE/Silicone plug. The solubility sample plate was transferred to the Eppendorf Thermomixer Comfort plate shaker and shaked at 25° C. at 1100 RPM for 2 hours. After completion of the 2 hours, the stir sticks using a big magnet were removed. The samples from the solubility sample plate were transferred into the filter plate. Using the vacuum manifold, all the samples are filtered. Aliquot of 5 μL was taken from filtrate followed by addition of 5 μL DMSO and 490 μL of a mixture of H2O and acetonitrile containing internal standard (1:1).
3 μM Standards solution (STD) was prepared from the 10 mM DMSO STD plate.as following: transferring 6 μL into the remaining empty plate, adding 194 μL of DMSO to that plate to have a STD concentration of 300 μM. From the 300 μM DMSO STD plate, 5 μL solution was transferred into the remaining empty plate. Addition of 5 μL PBS and 490 μL of a mixture of H2O and acetonitrile containing internal standard (1:1) to that plate furnished a final STD concentration of 3 μM STD solution.
The samples are analyzed and quantified against the standard of known concentration using LC/MS/MS, calculating the solubility of the test compound as following (DF means the dilution factor):
[Sample solubility in FsSSIF (04)]=Area Ratio sample×DF sample×[STD]/Area Ratio STD

HCC1806 Ub-PCNA (USP1) = assay: USP1 Western Blot Protocol (HCC1806 Ub-PCNA); format: cell-based; conditions: Homo sapiens, HCC1806 cells, 4 hours
Description: USP1 Western Blot Protocol (HCC1806 Ub-PCNA)
USP1 is a deubiquitinase that catalyze the hydrolysis of iso-peptide bond between ubiquitin and the substrate proteins. Inhibition of USP1 activity results in accumulation of mono-ubiquitinated substrate such as Ub-PCNA. A cell assay was set up to determine the cellular potency of USP1 compounds by monitoring the accumulation of Ub-PCNA. The signal intensity was detected by a specific Ub-PCNA antibody through Western-blot analysis.
The assay was initiated by seeding HCC1806 cells (ATCC, CRL-2335) into 6-well plates (Corning, 3516), with a seeding density of 3×10^5 cells per well and 2 mL RPMI 1640 culture medium (Gibco, 11875119). The plates were incubated overnight at 37° C. and 5% CO2. Compounds, solubilized in DMSO (Solarbio, D8371) as 1 mM stock solution, were diluted in 4-fold steps for 5-cencentration point dose response plus a no-compound DMSO control. Diluted compounds (2 μL) were transferred into assay wells (with a final DMSO concentration of −0.1%) and the resulted assay plates incubated at 37° C. and 5% CO2 for 4 hours. After aspiration of culture medium, 100 μL of 4° C. RIPA lysis buffer (Boston BioProducts, BP-115D) supplemented with vendor recommended concentrations of protease (Roche, 4693116001) and phosphatase (Roche, 4906837001) inhibitor, was added to each well and incubated for 10 minutes on the ice. Cells were scrapped loose from the bottom of well with a scraper (Corning, 3008), transferred into a 600 μL EP tube, sonicated using Ultrasound (Qsonica, Q800R3, with 30% energy, 5-second pulse on/off cycles at 4° C., for total 2 minutes), centrifuged 13,000 rpm for 15 minutes at 4° C., and then the supernatant transferred to a new 600 μL EP tube. The total protein concentration was determined using BCA kit following vendor recommended protocol (Solarbio, PC0020-500). Loading samples were prepared by diluting the total protein concentration to 1.5 μg/μL with 5 X NuPAGE SDS loading buffer (Beyotime, P0015L) and RIPA lysis buffer, and boiling at 100° C. for 5 minutes.
15 μg protein from each sample was loaded onto NuPAGE® Novex 4-12% Bis-Tris Midi Gel, 26 W (Invitrogen, WG1403BOX) and electrophoresis was run at 80 V for 30 minutes and 120 V till the end using 1x NuPAGE® MOPS SDS Running Buffer (Novex, NP0001). The gel was then transferred to nitrocellulose membrane using the dry transfer system (iBlot 2 Transfer Stacks, nitrocellulose, D323001) with a program consisting of 20 V for 1 minute, 23 V for 4 minutes and 25 V for 2 minutes. After the membrane was blocked with 5% BSA (Solarbio, A8020) in 1X TBST (CST, 9997S) for 1 hour at room temperature, specific antibodies (Ubiquityl-PCNA antibody (CST, 13439) at 1:500 dilution, PCNA antibody (Santa Cruz, sc-56) at 1:1000 dilution, and GAPDH (CST, 5174) at 1:2000 dilution in 1 X TBST containing 1% BSA) were added and incubated at room temperature for 1.5 hours. After washing the Nitrocellulose membranes with 1 X TBST for 3 times, 10 minutes each time at room temperature, fluorescently labeled secondary antibodies (anti-rabbit IgG, Licor, 926-32211; anti-mouse IgG, LI-COR, 926-68070) at 1:5000 dilution in 1 X TBST containing 1% BSA were added and incubated for 1 hour at room temperature in the dark. The membranes were then rinsed with 1 X TBST and immersed in the RO water. Imaging of band intensity was acquired with Li—COR imaging system (Li—COR, Odyssey clx ES).
Percentage of USP1 inhibition (% Vehicle) was calculated by using following equation examining Ub-PCNA upregulation:
And IC50 was calculated using four-parameter logistic fitting program • Y=Bottom+(Top-Bottom)/(1+10 {circumflex over (()}(LogIC50−X)*Hill Slope)) • X=Log of dose or concentration
(§1) Certain compounds were tested in the assays.

MDA-MB-436 cells = assay: CTG Protocol (MDA-MB-436 GI50), antiproliferative activity; format: cell-based, human; conditions: Homo sapiens, 168 h; MDA-MB-436 cells (BRCA1 mutation), 7-day incubation, CellTiter-Glo
Experimental: CTG Protocol (MDA-MB-436 GI50)
Antiproliferative activity of USP1 inhibitors was determined using breast cancer cell line MDA-MB-436 that harbors BRCA1 mutation. MDA-MB-436 cells (ATCC, HTB-130) was seeded with a seeding density of 1000 cells per well and 95 μL DMEM medium (Gibco, 10566016) into 96-well cell plates (Corning, 3610), and incubated overnight at 37° C. and 5% CO2. Compounds were solubilized in DMSO (Solarbio, D8371) as 10 mM stock solution, and then series diluted (3 folds) with DMSO for 9-point dose-response testing. The resulted series dilutions were then jump-diluted 50-fold by cell culture medium to afford the 20×stock solutions (containing 2% DMSO). Treatment was initiated by adding 5 μL of 20×stock solution to the assay plate and incubated at 37° C. and 5% CO2. At the end of 7-day incubation, cell assay plates were removed from incubation and equilibrated to room temperature (20 min). Then 100 μL of CellTiter-Glo (Promega, G9243) reagent, prepared per manufacturer's protocol, was added to each well, and the resulted plates were centrifuged 1,000 rpm for 1 minute, incubated at room temperature in the dark for 20 minutes, sealed with Perkin Elmer sticky film, and the luminescence signal read by Envision (Perkin Elmer).
Data analysis • a) % Inhibition was calculated using following equation: […]
X: compound concentration; Y: % Inhibition
as §1

SMILES	microsomal CLint at 1 μM [1]	solubility at 2 h [2]	IC50 (HCC1806 Ub-PCNA (USP1))	GI50 (MDA-MB-436 cells)
COc1ncnc(C2CC2)c1-c1ncc2cc(C3=CCN(C)CC3)c(=O)n(Cc3ccc(-c4nc(C(F)(F)F)cn4C(C)C)cc3)c2n1 [Compound I-106]	< 10 µL/min/mg	≥ 100 µM	–	–
COc1cc(Cn2c(=O)cnc3cnc(-c4c(OC)ncnc4C4CC4)nc32)ccc1-c1nc(C(F)(F)F)cn1C(C)C [Compound I-118]	10 to 50 µL/min/mg	≥ 100 µM	–	–
COc1cc(Cn2c(=O)ccc3cnc(-c4c(OC)ncnc4C4CC4)c(F)c32)ccc1-c1nc(C(F)(F)F)cn1C1CC1 [Compound I-126]	10 to 50 µL/min/mg	10 to 100 µM (≈ 6.07 to 60.7 µg/mL)	–	–
[2H]C([2H])([2H])n1cc(C(F)(F)F)nc1-c1ccc(C([2H])([2H])n2c(=O)ccc3cnc(-c4c(OC)ncnc4C4CC4)nc32)cc1 [Compound I-37, 2-(4-Cyclopropyl-6-Methoxypyrimidin-5-Yl)-8-({4-[1-(2H3)Methyl-4-(Trifluoromethyl)Imidazol-2-Yl]Phenyl}(2H2)Methyl)Pyrido[2,3-d]Pyrimidin-7-One]	10 to 50 µL/min/mg	–	10 to 100 nM	10 to 100 nM
[2H]C([2H])([2H])n1cc(C(F)(F)F)nc1-c1ccc(Cn2c(=O)ccc3cnc(-c4c(OC)ncnc4C4CC4)nc32)cc1 [Compound I-31, 2-(4-Cyclopropyl-6-Methoxypyrimidin-5-Yl)-8-({4-[1-(2H3)Methyl-4-(Trifluoromethyl)Imidazol-2-Yl]Phenyl}Methyl)Pyrido[2,3-d]Pyrimidin-7-One]	10 to 50 µL/min/mg	–	10 to 100 nM	< 10 nM
COc1cc(Cn2c(=O)ccc3cnc(-c4c(OC)ncnc4OC)nc32)cc(F)c1-c1nc(C(F)(F)F)cn1C(C)C [Compound I-113]	10 to 50 µL/min/mg	10 to 100 µM (≈ 6 to 60 µg/mL)	–	–
COc1ncnc(C2CC2)c1-c1ncc2ccc(=O)n(Cc3ccc(-c4nc(C(F)(F)F)cn4C(C)C)cc3)c2n1 [Compound I-4, 2-(4-Cyclopropyl-6-Methoxypyrimidin-5-Yl)-8-({4-[1-Isopropyl-4-(Trifluoromethyl)Imidazol-2-Yl]Phenyl}Methyl)Pyrido[2,3-d]Pyrimidin-7-One]	< 10 µL/min/mg	< 10 µM	–	–
COc1ncnc(C2CC2)c1-c1ncc2ccc(=O)n(Cc3ccc(-n4nc(C(F)(F)F)cc4C)cc3)c2n1 [Compound I-8, 2-(4-cyclopropyl-6-methoxypyrimidin-5-yl)-8-({4-[5-methyl-3-(trifluoromethyl)pyrazol-1-yl]phenyl}methyl)pyrido[2,3-d]pyrimidin-7-one]	10 to 50 µL/min/mg	≥ 100 µM	–	–
COc1ncnc(C2CC2)c1-c1ncc2ccc(=O)n(Cc3ccc(-n4nc(C(F)(F)F)cc4OC)cc3)c2n1 [Compound I-110]	< 10 µL/min/mg	< 10 µM	–	–
COc1ncnc(C2CC2)c1-c1ncc2ccc(=O)n(Cc3ccc(-c4nc(C(F)(F)F)cn4C(C)C)c(F)c3OC)c2n1 [Compound I-23, 2-(4-cyclopropyl-6-methoxypyrimidin-5-yl)-8-({3-fluoro-4-[1-isopropyl-4-(trifluoromethyl)imidazol-2-yl]-2-methoxyphenyl}methyl)pyrido[2,3-d]pyrimidin-7-one]	10 to 50 µL/min/mg	< 10 µM	–	–
COc1cc(Cn2c(=O)cnc3cnc(-c4c(OC)ncnc4C4CC4)nc32)ccc1-n1nc(C(F)(F)F)cc1OC [Compound I-123]	10 to 50 µL/min/mg	≥ 100 µM	–	–

Reference: patent publication US20240092779A1, “USP1 INHIBITORS AND USES THEREOF” (Zentaur Therapeutics USA Inc., priority 2022, published 2024)
